From ChEMBL document CHEMBL1139104, “Synthesis and evaluation of 4-O-alkylated 2-deoxy-2,3-didehydro-N-acetylneuraminic acid derivatives as inhibitors of human parainfluenza virus type-3 sialidase activity” (Bioorg Med Chem Lett, 2007)

Assay: Inhibition of sialidase in Human parainfluenza virus 3 C243
Parameters: species or system Human respirovirus 3

**Q.** For `CC(=O)N[C@H]1[C@H]([C@H](O)[C@H](O)CO)OC(C(=O)O)=C[C@@H]1O` [NEU5AC2EN], which IC50 is on record?
**A.** Its IC50 is 24 µM.

**Q.** Which IC50 does the source give for `CC(=O)N[C@H]1[C@H]([C@H](O)[C@H](O)CO)OC(C(=O)O)=C[C@@H]1NC(=N)N` [ZANAMIVIR] here?
**A.** The IC50 was 25 µM.

**Q.** For `CC(=O)N[C@H]1[C@H]([C@H](O)[C@H](O)CO)OC(C(=O)O)=C[C@@H]1OCc1ccccc1`, which IC50 is on record?
**A.** The IC50 was 10 µM.

**Q.** Which IC50 does the source give for `CCCCCCCCCCO[C@H]1C=C(C(=O)O)O[C@@H]([C@H](O)[C@H](O)CO)[C@@H]1NC(C)=O` here?
**A.** Its IC50 is 10 µM.

**Q.** With `CC(=O)N[C@H]1[C@H]([C@H](O)[C@H](O)CO)OC(C(=O)O)=C[C@@H]1OCc1ccccc1-c1ccccc1` as the compound, how does the IC50 read?
**A.** Its IC50 is 30 µM.

**Q.** For `CCO[C@H]1C=C(C(=O)O)O[C@@H]([C@H](O)[C@H](O)CO)[C@@H]1NC(C)=O`, which IC50 is on record?
**A.** The IC50 was 3 µM.

**Q.** Which IC50 does the source give for `CCCCCCO[C@H]1C=C(C(=O)O)O[C@@H]([C@H](O)[C@H](O)CO)[C@@H]1NC(C)=O` here?
**A.** The IC50 was 5 µM.
